In patent US20080261994A1, “CYCLOPROPANE COMPOUNDS AND PHARMACEUTICAL USE THEREOF” (Japan Tobacco Inc., priority 2003, published 2008):
pIC50: −log10 of the molar value. Like-named read-outs stand apart in the source and are kept apart here.

Experiments:
Assay type in all cases: biochemical
[1] = biological target: T1, aggrecanase-1 (Homo sapiens, UniProt O75173); assay: Aggrecanase-1 inhibitory action (Particle Assay, GAG release from aggrecan-containing polyacrylamide particles)
T1 sequence (O75173 213-837): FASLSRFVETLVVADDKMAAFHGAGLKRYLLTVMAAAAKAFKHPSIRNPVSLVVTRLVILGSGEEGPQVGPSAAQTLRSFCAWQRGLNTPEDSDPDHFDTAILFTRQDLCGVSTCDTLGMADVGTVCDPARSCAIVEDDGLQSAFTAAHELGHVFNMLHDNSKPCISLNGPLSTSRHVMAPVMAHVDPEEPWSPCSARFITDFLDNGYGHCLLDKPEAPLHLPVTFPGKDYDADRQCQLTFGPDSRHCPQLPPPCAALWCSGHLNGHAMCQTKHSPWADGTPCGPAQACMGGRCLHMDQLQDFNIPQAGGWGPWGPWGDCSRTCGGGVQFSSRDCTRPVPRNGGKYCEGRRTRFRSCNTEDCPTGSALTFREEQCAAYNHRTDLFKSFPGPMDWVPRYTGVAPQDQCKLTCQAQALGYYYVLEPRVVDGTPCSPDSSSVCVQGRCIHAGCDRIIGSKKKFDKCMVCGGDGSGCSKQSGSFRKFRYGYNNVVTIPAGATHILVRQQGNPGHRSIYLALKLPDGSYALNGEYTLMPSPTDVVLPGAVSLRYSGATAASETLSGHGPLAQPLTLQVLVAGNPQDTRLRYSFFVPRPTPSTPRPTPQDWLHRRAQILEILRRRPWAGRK
Experimental: Particle Assay was used for determination of aggrecanase activity.
(§1) The enzyme and substrate were diluted with Tris-HCl buffer, and test compounds were diluted with dimethyl sulfoxide (DMSO).
Test compounds and the enzyme were added into 96-well plate, and polyacrylamide particles containing aggrecan were added as a substrate and the mixture was incubated at 37° C. for 15 hr.
After incubation, the supernatant was transferred to another plate, and mixed with 1,9-dimethylmethylene blue. The absorbence at 595 nm was measured to quantify the amount of glycosaminoglycan (GAG) released in the reaction supernatant. Whale chondroitin sulfate was used as the standard of GAG. The inhibitory activity of the compound in each well (%) was calculated based on the values of enzyme-free well and inhibitor-free well. The inhibitory activity of the compound was represented as […] (μM).

[2] = biological target: T2, MMP-1 (Homo sapiens, UniProt P03956); assay: MMP-1 inhibitory action (Type I collagen Activity Measurement kit, FITC-labeled collagen type I)
T2 sequence (P03956 100-469): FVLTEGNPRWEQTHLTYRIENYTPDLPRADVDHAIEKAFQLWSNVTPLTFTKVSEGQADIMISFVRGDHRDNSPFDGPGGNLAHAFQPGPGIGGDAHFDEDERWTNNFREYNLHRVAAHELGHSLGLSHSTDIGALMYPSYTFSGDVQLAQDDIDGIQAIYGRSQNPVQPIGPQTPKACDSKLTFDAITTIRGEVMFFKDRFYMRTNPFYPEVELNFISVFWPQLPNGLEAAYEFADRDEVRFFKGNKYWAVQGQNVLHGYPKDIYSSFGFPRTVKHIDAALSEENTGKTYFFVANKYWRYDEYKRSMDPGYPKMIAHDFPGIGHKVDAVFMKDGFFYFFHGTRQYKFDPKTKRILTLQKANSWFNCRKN
Experimental: For MMP-1 Assay, Type I collagen Activity Measurement kit (YAGAI YU-72013) modified to a 96-well plate format was used.
The principle of the kit is based on the property of collagen that becomes soluble in ethanol after being cleaved by MMP-1.
as §1
The enzyme and test compounds were added into 96-well plate, and fluorescein isothiocianate (FITC)-labeled collagen type I was added as a substrate and the mixture was incubated at 37° C. for 3 hr.
The reaction was terminated by addition of Tris-HCl buffer containing ethanol. After centrifugation, the supernatant containing denatured substrate was transferred to another 96-well plate. The collagenase activity of MMP-1 was determined by measuring FITC fluorescence intensity (excitation wavelength 485 nm, emission wavelength 530 nm) of each well. The inhibitory activity of the compound in each well (%) was calculated based on the values of enzyme-free well and inhibitor-free well. The inhibitory activity of the compound was represented as IC50 (μM).

[3] = biological target: T3, Recombinant Human MMP-13 (Homo sapiens, UniProt P45452); assay: MMP-13 inhibitory activity (MMP-13 specific fluorescent substrate with quencher)
T3 construct: purchased R&D systems 511-MM
Experimental: Inhibitory activity of tested compounds on MMP-13 was measured using MMP-13 specific fluorescent substrate with quencher.
as §1
Test compounds and the enzyme (Recombinant Human MMP-13: R&D systems, 511-MM) were added into 96-well plate. The reaction was initiated by adding synthetic substrate (7-MCA-Pro-CHA-Gly-NVal-His-Ala-DPA: enzyme systems products, Met-06) into the plate. After incubation at 25° C. for 1 h, the reaction was terminated by addition of reaction terminating solution containing acetic acid. Fluorescence intensity of each well was measured (Ex: 325 nm, […] 405 nm) and the MMP-13 inhibitory activity of the compound in each well (%) was calculated based on the values of enzyme-free well and inhibitor-free well. The inhibitory activity of the compound was represented as IC50 (μM).

[4] = Experimental Example 1, read-out: IC50 AG1
[5] = Experimental Example 2, read-out: IC50 MMP1
[6] = Experimental Example 3, read-out: IC50 MMP13
[7] = aggrecanase-1 inhibitory action, read-out: IC50 AG1 (Experimental Example 1)
[8] = MMP-1 inhibitory action, FITC-labeled collagen type I, 37° C. for 3 hr, read-out: IC50 MMP1 (Experimental Example 2)
[9] = Recombinant Human MMP-13, fluorescent substrate, 25° C. for 1 h, read-out: IC50 MMP13 (Experimental Example 3)

Row | Structure (SMILES) | pIC50 [1, 4] | pIC50 [2, 5] | pIC50 [3, 6] | pIC50 [1, 7] | pIC50 [2, 8] | pIC50 [3, 9]
1 | NC(=O)OCCc1cccc(C2CC2(NS(=O)(=O)c2ccc(-c3cc(C(F)(F)F)on3)s2)C(=O)O)c1 (centres unmarked) [Example 2-270] | > 7.00 | ≤ 6.00 | > 7.00 | – | – | –
2 | O=C(O)C1(NS(=O)(=O)c2ccc(-c3cc(C(F)(F)F)on3)s2)CC1c1ccccc1 (centres unmarked) [Example 1-121] | – | – | – | > 7.00 | ≤ 6.00 | > 7.00
3 | Cc1cc(-c2ccc(S(=O)(=O)N[C@@]3(C(=O)O)C[C@@H]3c3ccccc3)s2)no1 [Example 2-85] | – | – | – | > 6.00 | ≤ 6.00 | > 7.00
4 | CC1[C@H](c2ccccc2)[C@]1(NS(=O)(=O)c1ccc(-n2cc(Cl)cn2)s1)C(=O)O (some centres unmarked) [Example 2-444] | > 7.00 | > 6.00 | > 7.00 | – | – | –
5 | CN(C)C(=O)Cc1ccc([C@@H]2C[C@]2(NS(=O)(=O)c2ccc(-c3cc(C(F)(F)F)on3)s2)C(=O)O)cc1 [Example 2-290] | > 7.00 | > 6.00 | > 7.00 | – | – | –
6 | O=C(CO)NCC1(c2ccccc2)CC1(NS(=O)(=O)c1ccc(-c2ccc(Cl)cc2)s1)C(=O)O (centres unmarked) [Example 2-399] | > 6.00 | ≤ 6.00 | > 6.00 | – | – | –
7 | O=C(NCC1(c2ccccc2)CC1(NS(=O)(=O)c1ccc(-c2ccc(Cl)cc2)s1)C(=O)O)C1CC1 (centres unmarked) [Example 2-379] | > 6.00 | ≤ 6.00 | > 6.00 | – | – | –
8 | O=C1CCCN1c1cccc(C2CC2(NS(=O)(=O)c2ccc(-c3cc(C(F)(F)F)on3)s2)C(=O)O)c1 (centres unmarked) [Example 2-276] | > 6.00 | ≤ 6.00 | > 7.00 | – | – | –
9 | CCNC(=O)OCC1(c2ccccc2)CC1(NS(=O)(=O)c1ccc(-c2cc(C(F)(F)F)on2)s1)C(=O)O (centres unmarked) [Example 2-321] | > 6.00 | ≤ 6.00 | > 6.00 | – | – | –
10 | CC1[C@H](c2ccccc2)[C@]1(NS(=O)(=O)N1CCCN(c2cccc(Cl)c2)CC1)C(=O)O (some centres unmarked) [Example 2-471] | ≤ 6.00 | ≤ 5.00 | ≤ 6.00 | – | – | –
11 | O=C(O)C1(NS(=O)(=O)c2ccc(-c3ccc(Cl)cc3)cc2)CC1c1ccc(Oc2ccccc2)cc1 (centres unmarked) [Example 1-16] | – | – | – | > 6.00 | ≤ 6.00 | > 7.00
12 | O=C(O)C1(NS(=O)(=O)c2ccc(-c3cc(C(F)(F)F)on3)s2)C2Cc3ccccc3C21 (centres unmarked) [Example 2-277] | > 6.00 | ≤ 6.00 | > 6.00 | – | – | –
13 | C[C@]1(c2ccccc2)C[C@@]1(NS(=O)(=O)c1ccc2c(c1)Cc1cc(Br)ccc1-2)C(=O)O [Example 2-100] | – | – | – | > 7.00 | > 6.00 | > 7.00
14 | CN(C)C(=O)Cc1cccc(C2CC2(NS(=O)(=O)c2ccc(-c3ccc(Cl)cc3)s2)C(=O)O)c1 (centres unmarked) [Example 2-189] | – | – | – | > 7.00 | ≤ 5.00 | > 7.00
15 | O=C(CCO)NCC1(c2ccccc2)CC1(NS(=O)(=O)c1ccc(-c2ccc(Cl)cc2)s1)C(=O)O (centres unmarked) [Example 2-395] | > 6.00 | ≤ 5.00 | > 6.00 | – | – | –
16 | CC1C(NS(=O)(=O)c2ccc(-c3cc(C(F)(F)F)on3)s2)(C(=O)O)C1(C)c1ccccc1 (centres unmarked) [Example 2-597] | ≤ 6.00 | ≤ 6.00 | ≤ 5.00 | – | – | –
17 | O=C(O)C1(NS(=O)(=O)c2ccc(OCc3ccc(Cl)cc3Cl)cc2)C2Cc3ccccc3C21 (centres unmarked) [Example 2-446] | ≤ 6.00 | ≤ 5.00 | ≤ 6.00 | – | – | –

Row | Structure (SMILES) | pIC50 [1, 4] | pIC50 [2, 5] | pIC50 [3, 6] | pIC50 [1, 7] | pIC50 [2, 8] | pIC50 [3, 9]
18 | CC1[C@H](c2ccccc2)[C@]1(NS(=O)(=O)N1CCN(C(=O)NCc2ccccc2)CC1)C(=O)O (some centres unmarked) [Example 2-529] | ≤ 6.00 | ≤ 6.00 | ≤ 6.00 | – | – | –
19 | O=C(c1ccc(Cl)cc1)c1ccc(S(=O)(=O)N[C@@]2(C(=O)O)C[C@@H]2c2ccccc2)s1 [Example 2-307] | ≤ 6.00 | ≤ 5.00 | ≤ 6.00 | – | – | –
20 | CC1[C@H](c2ccccc2)[C@]1(NS(=O)(=O)c1ccc(-c2cc(C(F)F)on2)s1)C(=O)O (some centres unmarked) [Example 2-353] | > 7.00 | > 6.00 | > 7.00 | – | – | –
21 | Cc1ccc(-c2ccc(S(=O)(=O)NC3(C(=O)O)CC3c3ccccc3)s2)cc1 (centres unmarked) [Example 2-20] | – | – | – | > 6.00 | ≤ 6.00 | > 7.00
22 | O=C1OCC2C(c3ccccc3)C12NS(=O)(=O)c1ccc(-c2cc(C(F)(F)F)on2)s1 (centres unmarked) [Example 2-312] | ≤ 6.00 | ≤ 5.00 | ≤ 5.00 | – | – | –
23 | CC1[C@H](c2ccccc2)[C@]1(NS(=O)(=O)c1ccc(-c2ccc(Cl)c(F)c2)s1)C(=O)O (some centres unmarked) [Example 2-435] | > 7.00 | > 6.00 | > 7.00 | – | – | –
24 | O=C1COCCN1CC1(c2ccccc2)CC1(NS(=O)(=O)c1ccc(-c2ccc(Cl)cc2)s1)C(=O)O (centres unmarked) [Example 2-400] | ≤ 6.00 | ≤ 6.00 | > 6.00 | – | – | –
25 | COCc1cccc(C2CC2(NS(=O)(=O)c2ccc(-c3ccc(Cl)cn3)s2)C(=O)O)c1 (centres unmarked) [Example 2-57] | – | – | – | > 6.00 | ≤ 5.00 | > 7.00
26 | O=C1CCCN1c1ccc(S(=O)(=O)N[C@@]2(C(=O)O)C[C@@H]2c2ccccc2)s1 [Example 2-163] | – | – | – | ≤ 5.00 | ≤ 5.00 | ≤ 5.00
27 | CN1CCN(C(=O)OCC2(c3ccccc3)CC2(NS(=O)(=O)c2ccc(-c3cc(C(F)(F)F)on3)s2)C(=O)O)CC1 (centres unmarked) [Example 2-334] | > 6.00 | ≤ 6.00 | > 6.00 | – | – | –
28 | O=C(O)C1(NS(=O)(=O)c2ccc(-c3ccc(Cl)cc3)cc2)CC1c1cccc(Oc2ccc(Cl)cc2)c1 (centres unmarked) [Example 1-11] | – | – | – | > 6.00 | ≤ 6.00 | > 6.00
29 | CC1[C@H](c2ccccc2)[C@]1(NS(=O)(=O)c1ccc(-c2ccc(Cl)cc2F)s1)C(=O)O (some centres unmarked) [Example 2-407] | > 7.00 | > 6.00 | > 7.00 | – | – | –
30 | Cn1cc(-c2ccc(S(=O)(=O)N[C@@]3(C(=O)O)C[C@]3(C)c3ccccc3)s2)nn1 [Example 2-587] | ≤ 6.00 | ≤ 6.00 | > 6.00 | – | – | –
31 | CC1C(NS(=O)(=O)c2ccc(-c3cc(C(F)(F)F)on3)s2)(C(=O)O)C1(C)c1ccccc1 (centres unmarked) [Example 2-598] | > 7.00 | ≤ 6.00 | > 6.00 | – | – | –
32 | C[C@]1(c2ccccc2)C[C@@]1(NS(=O)(=O)c1ccc(-n2cc(C(F)(F)F)cn2)cc1)C(=O)O [Example 2-506] | ≤ 6.00 | > 6.00 | > 7.00 | – | – | –
33 | O=C(O)C1(NS(=O)(=O)c2ccc(-c3ccc(Cl)cc3)s2)CC1c1ccccc1CN1CCOCC1 (centres unmarked) [Example 2-91] | – | – | – | > 6.00 | ≤ 5.00 | > 6.00
34 | O=C(O)C1(NS(=O)(=O)c2ccc(-c3ccc(Cl)cc3)s2)CC1Cc1ccccc1 (centres unmarked) [Example 2-38] | – | – | – | ≤ 6.00 | – | > 6.00
